In assay [1] the test system is Phosphorylation of ERK1/2 in AsPC-1 cells. Briefly: Phospho-ERK1/2 MSD Assay. Format: cell-based. As to the method: Sixteen hours prior to compound treatment, AsPC-1 cells were seeded in 96-well cell culture plates at a density of 25,000 cells/well and incubated at 37° C., 5% CO2. A compound dose-response titration was diluted in growth media, added to appropriate wells of a cell culture plate, and then incubated at 37° C., 5% CO2 for 2 hours.

Assay [2] addresses T1, His-tagged KRAS G12D protein (Homo sapiens, UniProt P01116, G12D).
Experimental: (§1) The plate was incubated for 30 minutes at room temperature. Biotinylated KRPep-2d substrate (Amgen) was diluted to nM in Assay Buffer and 2 μL was added to all wells and incubated for 1 hour at room temperature. Detection Reagent (0.4 nM LANCE Eu-W1024 Anti-6×His (Perkin Elmer AD0401), 5 nM streptavidin-d2 (Cisbio 610SADLA)) was prepared in Assay Buffer, then 4 µL was added to the plate and incubated for 1 hour at room temperature.
Assay [3] concerns the target T1, His-tagged KRAS G12D protein. In words: biochemical.
Experimental: as §1
[4] abbreviates: Homo sapiens, ASPC1, 2 h, read-out: 2 h p-ERK (AsPC-1 cells), IC50, AsPC-1 cells, 2 h compound treatment.

The structures appear in SMILES notation. Like-named read-outs stand apart in the source and are kept apart here. Where only a bound is given, the exact number is not on record here.

T1 sequence (P01116 1-188 isoform P01116-2 G12D): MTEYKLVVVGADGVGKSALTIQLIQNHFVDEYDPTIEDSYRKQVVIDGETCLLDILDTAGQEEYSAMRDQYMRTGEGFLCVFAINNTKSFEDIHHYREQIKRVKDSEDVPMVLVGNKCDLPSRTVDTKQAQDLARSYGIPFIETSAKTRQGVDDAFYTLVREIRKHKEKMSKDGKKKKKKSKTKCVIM

For `CCc1c(F)ccc2cc(O)cc(-c3ncc4c(N5CCCC(C#N)CC5)nc(OC[C@@]56CCCN5C[C@H](F)C6)nc4c3F)c12` (single isomer, unassigned) [Example 55], the IC50 (in general, the concentration that gives 50% inhibition) in assay [1] (read-out: 2 h p-ERK (AsPC-1 cells), IC50, AsPC-1 cells, 2 h compound treatment) is 259 nM; in assay [2] it was 3 nM.

Regarding `CCc1c(F)ccc2cc(O)cc(-c3ncc4c(N5CCCC(O)CC5)nc(OC[C@@]56CCCN5C[C@H](F)C6)nc4c3F)c12` (stereo partly drawn) [Example 141, 1-(7-(8-Ethyl-7-fluoro-3-hydroxynaphthalen-1-yl)-8-fluoro-2-(((2R,7aS)-2-fluorotetrahydro-1H-pyrrolizin-7a(5H)-yl)methoxy)pyrido[4,3-d]pyrimidin-4-yl)azepan-4-ol], the figures for the IC50 in assay [1] (setting [4]) and in assay [3] were 198 nM and 4 nM, respectively.

On to `CCc1c(F)ccc2cc(O)cc(-c3ncc4c(N5CCCC(N)CC5)nc(OC[C@@]56CCCN5C[C@H](F)C6)nc4c3F)c12` (stereo partly drawn) [Example 143, 4-(4-(4-Aminoazepan-1-yl)-8-fluoro-2-(((2R,7aS)-2-fluorotetrahydro-1H-pyrrolizin-7a(5H)-yl)methoxy)pyrido[4,3-d]pyrimidin-7-yl)-5-ethyl-6-fluoronaphthalen-2-ol], for which the values for the half-maximal inhibitory concentration (IC50) in assay [1] (setting [4]) and in assay [3] were above 10000 nM and 62 nM, respectively.

In the case of `CCc1c(F)ccc2cc(O)cc(-c3ncc4c(N5CC6CCC(C5)C(C#N)C6)nc(OC[C@@]56CCCN5C[C@H](F)C6)nc4c3F)c12` (stereo partly drawn) [Example 147, 3-(7-(8-Ethyl-7-fluoro-3-hydroxynaphthalen-1-yl)-8-fluoro-2-(((2R,7aS)-2-fluorotetrahydro-1H-pyrrolizin-7a(5H)-yl)methoxy)pyrido[4,3-d]pyrimidin-4-yl)-3-azabicyclo[3.2.2]nonane-6-carbonitrile], the IC50 in assay [1] (setting [4]) turned out to be 714 nM; in assay [3] it was 15 nM.

In the case of `CCc1c(F)ccc2cc(O)cc(-c3ncc4c(N5CCCC(F)(F)CC5)nc(OC[C@@]56CCCN5C[C@H](F)C6)nc4c3F)c12` [Example 149, 4-(4-(4,4-Difluoroazepan-1-yl)-8-fluoro-2-(((2R,7aS)-2-fluorotetrahydro-1H-pyrrolizin-7a(5H)-yl)methoxy)pyrido[4,3-d]pyrimidin-7-yl)-5-ethyl-6-fluoronaphthalen-2-ol], the results for the concentration for half-maximal inhibition (IC50) in assay [1] (setting [4]) and in assay [3] were 702 nM and 12 nM, respectively.

Consider `CCc1c(F)ccc2cc(O)cc(-c3ncc4c(N5CCC(=O)C(F)(F)CC5)nc(OC[C@@]56CCCN5C[C@H](F)C6)nc4c3F)c12` [Example 150, 1-(7-(8-Ethyl-7-fluoro-3-hydroxy-naphthalen-1-yl)-8-fluoro-2-(((2R,7aS)-2-fluorotetrahydro-1H-pyrrolizin-7a(5H)-yl)methoxy)pyrido[4,3-d]pyrimidin-4-yl)-5,5-difluoroazepan-4-one], for which the concentration for half-maximal inhibition (IC50) in assay [1] (setting [4]) came to 1430 nM; in assay [3], 3 nM.

For the molecule `CCc1c(F)ccc2cc(O)cc(-c3ncc4c(N5CCC(=O)C(F)(F)C5)nc(OC[C@@]56CCCN5C[C@H](F)C6)nc4c3F)c12` [Example 152, 1-(7-(8-Ethyl-7-fluoro-3-hydroxy-naphthalen-1-yl)-8-fluoro-2-(((2R,7aS)-2-fluorotetrahydro-1H-pyrrolizin-7a(5H)-yl)methoxy)pyrido[4,3-d]pyrimidin-4-yl)-3,3-difluoropiperidin-4-one], the IC50 came to 2670 nM in assay [1] (setting [4]) and 4 nM in assay [3].

Turning to `CCc1c(F)ccc2cc(O)cc(-c3ncc4c(N5CCCCC(S(N)(=O)=O)C5)nc(OC[C@@]56CCCN5C[C@H](F)C6)nc4c3F)c12` (stereo partly drawn) [Example 158, 1-(7-(8-Ethyl-7-fluoro-3-hydroxy-naphthalen-1-yl)-8-fluoro-2-(((2R,7aS)-2-fluorotetrahydro-1H-pyrrolizin-7a(5H)-yl)methoxy)pyrido[4,3-d]pyrimidin-4-yl)azepane-3-sulfonamide], the IC50 was determined as 1420 nM in assay [1] (setting [4]) and 2 nM in assay [3].

In the case of `CCc1c(F)ccc2cc(O)cc(-c3ncc4c(N5CCCC(O)(C(N)=O)C5)nc(OC[C@@]56CCCN5C[C@H](F)C6)nc4c3F)c12` (stereo partly drawn) [Example 159, 1-(7-(8-Ethyl-7-fluoro-3-hydroxy-naphthalen-1-yl)-8-fluoro-2-(((2R,7aS)-2-fluorotetrahydro-1H-pyrrolizin-7a(5H)-yl)methoxy)pyrido[4,3-d]pyrimidin-4-yl)-3-hydroxypiperidine-3-carboxamide], the results for the IC50 in assay [1] (setting [4]) and in assay [3] were 3080 nM and 2 nM, respectively.

`CCc1c(F)ccc2cc(O)cc(-c3ncc4c(N5CCC[C@@H](C(N)=O)C5)nc(OC[C@@]56CCCN5C[C@H](F)C6)nc4c3F)c12` [Example 162, (R)-1-(7-(8-Ethyl-7-fluoro-3-hydroxynaphthalen-1-yl)-8-fluoro-2-(((2R,7aS)-2-fluorotetrahydro-1H-pyrrolizin-7a(5H)-yl)methoxy)pyrido[4,3-d]pyrimidin-4-yl)piperidine-3-carboxamide]: the half-maximal inhibitory concentration (IC50) in assay [1] (setting [4]) worked out at 1610 nM; in assay [3] it was 2 nM.

Regarding `Oc1cc(-c2ncc3c(N4CCCCCC4)nc(OC[C@@]45CCCN4C[C@H](F)C5)nc3c2F)c2c(F)c(F)ccc2c1` [Example 166, 4-(4-(Azepan-1-yl)-8-fluoro-2-(((2R,7aS)-2-fluorotetrahydro-1H-pyrrolizin-7a(5H)-yl)methoxy)pyrido[4,3-d]pyrimidin-7-yl)-5,6-difluoronaphthalen-2-ol], the IC50 came to 94 nM in assay [1] (setting [4]) and 3 nM in assay [3].

Take `C[C@@]1(O)CCCN(c2nc(OC[C@@]34CCCN3C[C@H](F)C4)nc3c(F)c(-c4cc(O)cc5cccc(C6CC6)c45)ncc23)C1` [Example 167, (R)-1-(7-(8-Cyclopropyl-3-hydroxynaphthalen-1-yl)-8-fluoro-2-(((2R,7aS)-2-fluorotetrahydro-1H-pyrrolizin-7a(5H)-yl)methoxy)pyrido[4,3-d]pyrimidin-4-yl)-3-methylpiperidin-3-ol]: the IC50 amounted to 12 nM in assay [1] (setting [4]) and 2 nM in assay [3].

With `C=CCC1CCCc2cc(O)cc(-c3ncc4c(N5CCC[C@@](C)(O)C5)nc(OC[C@@]56CCCN5C[C@H](F)C6)nc4c3F)c21` (stereo partly drawn) [Example 175, (3R)-1-(7-(8-Allyl-3-hydroxy-5,6,7,8-tetrahydro-naphthalen-1-yl)-8-fluoro-2-(((2R,7aS)-2-fluorotetrahydro-1H-pyrrolizin-7a(5H)-yl)methoxy)pyrido[4,3-d]pyrimidin-4-yl)-3-methyl-piperidin-3-ol], the IC50 in assay [1] (setting [4]) amounted to 10 nM; in assay [3], 8 nM.

On to `CCc1c(F)ccc2cc(O)cc(-c3ncc4c(N5CCC[C@@](C)(O)C5)nc(OCC56CCCN5CCC6)nc4c3F)c12` [Example 179, (R)-1-(7-(8-Ethyl-7-fluoro-3-hydroxynaphthalen-1-yl)-8-fluoro-2-((tetrahydro-1H-pyrrolizin-7a(5H)-yl)methoxy)pyrido[4,3-d]pyrimidin-4-yl)-3-methylpiperidin-3-ol], for which the results for the IC50 in assay [1] (setting [4]) and in assay [3] were 18 nM and 5 nM, respectively.
